In data set [1] the test system is X. cheopis adults. The experiment in a line: Flea bioassay, treated vials (Example 9). It is filed as in vivo. Particulars: 24 h exposure, 95% CI in parentheses. The protocol: Flea Colonies. Adult X. cheopis fleas (1–3 wk old) were obtained from a colony founded more than eight years ago using adults received from Tom Schwan, Rocky Mountain Laboratories, Hamilton, Mont. The area from which these original adult fleas were obtained, and the resulting colony, have no known histories of pesticide exposure.
Tick and Flea Bioassays. Concentrations of the compounds were prepared by 2-fold serial dilutions of a 0.5% (wt:vol) solution of the extracts in acetone. […] A control treated with acetone only was run with each series. Tick and flea susceptibility was evaluated using a modified disposable pipette method. See, Barnard, D. R., et al., J. Econ. Entomol.
(§1) The inner surface of 2-dram friction cap vials were treated with the compound/acetone solution, or acetone only as a control, and left to air-dry overnight. Three to 4 holes were made in the plastic cap to allow for air exchange. Nymphal ticks and adult fleas were then placed directly into the vials using forceps. Vials containing ticks or fleas were placed in desiccators for 24 h at 21° C. and 90% RH. Morbidity and mortality was recorded at 1, 2, 4, 8, and 24 h after initial exposure.

For data set [2], the system named is adult Xenopsylla cheopis fleas. The experiment in a line: Treated-vial biocidal screening, residual challenge (Example 2). It is filed as in vivo. Particulars: treated vials sat 5 wk; arthropods added for final 24 h. Here is the method:
(§2) Samples of the compounds listed below Were obtained from Dr. Karchesy, a co-inventor, and screened for biocidal activities against nymphal Ixodes scapularis. In this example, 2% acetone solutions (wt./vol.) of the compounds were applied to inner surfaces of 2-dram friction cap vials. Vials and caps were treated then allowed to dry for a minimum of 4 hours before placing 10 nymphs in each container. These same vials were used to challenge additional nymphs and adult I. scapularis ticks and adult Xenopsylla cheopis fleas through five weeks to observe any possible residual activity.
(§3) Numbers in parentheses refer to length of treatment in terms of hours (h) or weeks (wk). Data is presented in terms of number killed/number tested. For test periods longer than 24 hours, the treated vials were allowed to sit for the stated period after drying (72 h, 4 wk, or 5 wk) and each group of arthropods was added to the vials for the final 24 h of the test period.

Data set [3] has as its system Ae. aegypti adults. In words: Mosquito bottle bioassay (Example 9). It is filed as in vivo. To be noted: 24 h exposure, 95% CI in parentheses. The protocol:
Mosquito Colonies. Aedes aegypti adult mosquitoes were obtained from an existing colony at the Centers for Disease Control and Prevention (CDC), Division of Vector-Borne Infectious Diseases (DVBID), Fort Collins, Colo. This colony has been maintained for over fifteen years with no known history of exposure to pesticides. Mosquitoes were reared at 28° C., 85% RH, and a 14:10 h (light:dark) cycle. Larvae were grown in de-ionized water and fed ground liver powder solution ad libitum. Fourth instars were removed and placed in emergence cages, and adults were fed a 2% sucrose solution until assayed. Adults were exposed to test products at 4–7 d after emergence.
(§4) Mosquit Bioassay. Adult mosquitoes were tested using the bottle bioassay method of Brogden, W. G., and McAllister, J. C., J. Am. Mosq. Control Assoc. 14:159–64 (1998), with minor modifications. Natural product extracts were two-fold serially diluted for a total of 8 concentrations ranging from 0.002% to 0.25% in 1.5 ml of acetone. Individual dilutions were added to 250 ml Wheaton glass bottles and capped. Bottles were manipulated to evenly coat all inner surfaces. The caps were removed and bottles were allowed to air-dry overnight. Once bottles were completely dry, 10–50 adult mosquitoes were aspirated into the bottles. Mosquitoes were held in the bottles for 24 h at 23° C. and 85% RH. Morbidity and mortality were recorded at 15, 30, 45, and 60 min and 24 hour intervals. One bottle for each replicate was treated with acetone only and served as a control. The dose-mortality data was evaluated with probit analysis, using the LdP Line software, to determine LC50 and LC90 values.

For data set [4], the system named is adult I. scapularis ticks. The experiment in a line: Treated-vial biocidal screening, residual challenge (Example 2). It is filed as in vivo, Ixodes scapularis. To be noted: treated vials sat 4 wk; arthropods added for final 24 h. The protocol: as §2, §3
Data set [5] deals with I. scapularis nymphs. In words: Tick bioassay, modified disposable pipette method, treated vials (Example 9). The data set is classed as in vivo, Ixodes scapularis. To be noted: 24 h exposure, 95% CI in parentheses. The protocol: Tick Colonies. […] There was no known pesticide used at this location. Ticks were maintained at 21° C., 90% RH, and received a 16:8 h (light:dark) cycle as described in […]. Med. […] Tick and Flea Bioassays. […] A control treated with acetone only was run with each series. Tick and flea susceptibility was evaluated using a modified disposable pipette method. See, Barnard, D. R., et al., J. Econ. […] Three to 4 holes were made in the plastic cap to allow for air exchange. Nymphal ticks and adult fleas were then placed directly into the vials using forceps. Vials containing ticks or fleas were placed in desiccators for 24 h at 21° C. and 90% RH. […] For each time point, if ticks were incapable of movement, maintaining normal posture, leg coordination, ability to right themselves, or any signs of life, they were considered moribund or dead.

The subject of data set [6] is nymphal Ixodes scapularis. In words: Treated-vial biocidal screening, 2% acetone solutions (Example 2). It is filed as in vivo. Particulars: for I. scapularis nymphs (24 h), number killed/number tested: 2% acetone solution (wt./vol.) dried in vials; for I. scapularis nymphs (72 h), number killed/number tested: treated vials sat 72 h, arthropods added for final 24 h. The protocol:
as §2, §3

The subject of data set [7] is ticks, fleas, and mosquitoes. In words: Residual activity, overall statements for ticks, fleas and mosquitoes (Example 9). Particulars: 1 to 4 weeks after treatment.
In data set [8] the test system is Aedes aegypti adults. The experiment in a line: Residual activity, treated bottles aged before loading (Example 9). It is filed as in vivo. The protocol:
as §4

Data set [9] deals with Ixodes scapularis nymphs. In words: Residual activity, treated vials aged before loading (Example 9). The data set is classed as in vivo. Here is the method:
(§5) Tick and Flea Bioassays. Concentrations of the compounds were prepared by 2-fold serial dilutions of a 0.5% (wt:vol) solution of the extracts in acetone. The approximate toxicity of individual compounds was determined with a total of 8 doses ranging from 0.002% to 0.25%. […] A control treated with acetone only was run with each series. Tick and flea susceptibility was evaluated using a modified disposable pipette method. See, Barnard, D. R., et al., J. Econ. Entomol. 74:466–69 (1981).
as §1, with “Groups of 10 nymphal I. scapularis and X. cheopis fleas were used in all tests, resulting in a total of 5,240 nymphs and 4,860 fleas exposed to the compounds. The” for “The”

The subject of data set [10] is nymphal I. scapularis. The experiment in a line: Baseline dose-mortality, method of Maupin and Piesman 1994 (Example 7). To be noted: nymphal ticks. It is filed as in vivo. From the text:
Baseline dose-mortalities were established for nymphal I. scapularis for nootkatone and valencene-11,12-epoxide using the method described in Maupin, G. O., and Piesman, J., J. Med. Entomol., 31:319–21 (1994).
A comparison of relative potency was made with published data for carbaryl and permethrin (Maupin and Piesman, 1994) and Alaska yellow cedar essential oil (Panella et al., J. Med. Entomol. 34:340–45 (1997) is presented in Table 6.

For data set [11], the system named is ticks, fleas, formicids and termites. In words: Persistence of biocidal activity, vials treated with 2% solutions (Example 5). It is filed as in vivo. Here is the method: as §2
Persistence of biocidal activity was determined for nootkatone and valencene-11,12-epoxide by using the vials as treated with the 2% solutions of Example 2. […] At 11 weeks, the biocidal activity began to dissipate below the 100% mortality level.

In data set [12] the test system is Xenopsylla cheopis adults. The experiment in a line: Residual activity, treated vials aged before loading (Example 9). The data set is classed as in vivo. The protocol: as §5
as §1, with “Groups of 10 nymphal I. scapularis and X. cheopis fleas were used in all tests, resulting in a total of 5,240 nymphs and 4,860 fleas exposed to the compounds. The” for “The”

Where [13] appears, read: residual activity at 1 week after treatment.
Setting [14] is: residual activity at 2 weeks after treatment.
Setting [15] is: residual activity at 4 weeks after treatment.

Each structure is given as a SMILES string. ≈ marks a conversion by molar mass, not a printed value. Read-outs that look alike come from different tables or passages of the source.

We go through 3 compounds from patent publication US7129271B2, “Compounds for pest control and methods for their use” (The United States of America as represented by the …, priority 2000, dated 2006).

Take `C=C(C)[C@@H]1CCC2=CCC[C@@H](C)[C@]2(C)C1` [Compound 5, Valencene]: in data set [1], the LC50 is listed as 0.041 (0.034–0.049) percent concentration, wt:vol and the LC90 is recorded as 0.063 (0.052–0.093) percent concentration, wt:vol. The “X. cheopis adults (5 wk), number killed/number tested” value in data set [2] is 0/5. For the same compound, in data set [3], the LC50 is recorded as 0.015 (0.008–0.029) percent concentration, wt:vol and the LC90 is 0.037 (0.031–0.162) percent concentration, wt:vol. The “I. scapularis adults (4 wk), number killed/number tested” value in data set [4] was 0/5. In [5], the LC50 is given as 0.598 percent concentration, wt:vol and the LC90 is on record as 44.837 percent concentration, wt:vol. Further, in [6], the “I. scapularis nymphs (24 h), number killed/number tested” value is on record as 10/10 and the “I. scapularis nymphs (72 h), number killed/number tested” value is reported as 0/5.
For the compound `C=C(C)C1CC=C2C=CCC(C)C2(C)C1` (stereo not drawn) [Compound 6, Nootkatene], the “residual activity (in words)” value in data set [7] was “nearly inactive”; in data set [7] (listed as compound 6), “did not demonstrate any residual activity after one week”. Besides, the LC50 was 0.017 (0.012–0.024) percent concentration, wt:vol in data set [1]; 0.017 percent concentration, wt:vol in [1] (listed as compound 6); 0.132 (0.096–0.236) percent concentration, wt:vol in [8] (setting [13]); 0.027 percent concentration, wt:vol in [3]; 0.011 (0.0086–0.014) percent concentration, wt:vol in data set [5]; 0.011 percent concentration, wt:vol in data set [5] (listed as compound 6). Moreover, the LC50 in data set [9] (setting [13]) is 2.062 percent concentration, wt:vol. For the same compound, the LC90 is listed as 0.075 (0.049–0.151) percent concentration, wt:vol in data set [1]; 0.659 (0.329–2.855) percent concentration, wt:vol in data set [8] (setting [13]); 0.059 percent concentration, wt:vol in [3]; 0.06 (0.043–0.098) percent concentration, wt:vol in data set [5]; 524.656 percent concentration, wt:vol in [9] (setting [13]). Moreover, in data set [2], the “X. cheopis adults (5 wk), number killed/number tested” value is reported as 0/5. The “I. scapularis adults (4 wk), number killed/number tested” value in data set [4] was 0/5. Moreover, the “I. scapularis nymphs (24 h), number killed/number tested” value in data set [6] is recorded as 10/10. Further, the “I. scapularis nymphs (72 h), number killed/number tested” value in [6] is recorded as 4/5.
On to `C=C(C)[C@@H]1CCC2=CC(=O)C[C@@H](C)[C@]2(C)C1` [Compound 7, Nootkatone], for which the “residual activity (in words)” value in data set [7] is “considerable biological activity”. The LC50 is 0.0083 (0.0064–0.01) percent concentration, wt:vol in data set [1]; 0.02 (0.014–0.029) percent concentration, wt:vol in data set [8] (setting [13]); 0.019 (0.016–0.022) percent concentration, wt:vol in data set [8] (setting [14]); 0.013 (0.011–0.015) percent concentration, wt:vol in data set [8] (setting [15]); 57 µg/mL (≈ 261 µM) in data set [3] (Aedes aegypti, 24 h, read-out: LC50); 0.0029 (0.0025–0.0034) percent concentration, wt:vol in data set [5]. The LC50 is recorded as 0.016 (0.012–0.02) percent concentration, wt:vol in data set [12] (setting [13]); 0.031 percent concentration, wt:vol in data set [12] (setting [14]); 0.031 percent concentration, wt:vol in data set [12] (setting [15]); 0.023 percent concentration, wt:vol in data set [9] (setting [13]); 0.026 (0.018–0.039) percent concentration, wt:vol in data set [9] (setting [14]); 0.026 (0.018–0.039) percent concentration, wt:vol in [9] (setting [15]). For the same compound, the LC90 is on record as 0.054 (0.041–0.105) percent concentration, wt:vol in [8] (setting [13]); 0.046 (0.037–0.061) percent concentration, wt:vol in data set [8] (setting [14]); 0.038 (0.031–0.051) percent concentration, wt:vol in data set [8] (setting [15]); 0.05 (0.036–0.081) percent concentration, wt:vol in data set [12] (setting [13]); 0.134 percent concentration, wt:vol in data set [12] (setting [14]); 0.13 percent concentration, wt:vol in [9] (setting [13]). In addition, the LC90 in data set [9] (setting [14]) was 0.168 (0.094–0.448) percent concentration, wt:vol; in [9] (setting [15]), 0.164 (0.093–0.429) percent concentration, wt:vol. In addition, the “X. cheopis adults (5 wk), number killed/number tested” value in data set [2] is 5/5. In data set [4], the “I. scapularis adults (4 wk), number killed/number tested” value was 5/5. Further, in [10], the “more effective than essential oil of Alaska yellow cedar” value is reported as “about 98%”. The “potency relative to essential oil of Alaska yellow cedar” value in [10] is “approximately 50 times”. In data set [6], the “I. scapularis nymphs (24 h), number killed/number tested” value is reported as 10/10. For the same compound, the “I. scapularis nymphs (72 h), number killed/number tested” value in data set [6] is 5/5. Further, the mortality in [11] (24 hour exposure at each test through 10 weeks, each group of arthropods) is reported as 100%. The “time at which biocidal activity began to dissipate below the 100% mortality level” value in [11] (vials treated with 2% solutions) is 11 weeks.

By mortality is commonly meant the share of the test organisms that died. Higher therefore signals fewer survivors.
